The values below come from US5705523A, “Pyridine- and imidazole-derived agents for cardiovascular diseases” (Pfizer Inc., priority 1991, dated 1998).

Assay [1] has as its target T1, thromboxane A2 synthetase (Homo sapiens, UniProt P24557).
T1 construct: Indomethacin pretreated human platelet microsomes; from tissue; host or cells: human platelets (microsomes)
T1 sequence (P24557 1-533): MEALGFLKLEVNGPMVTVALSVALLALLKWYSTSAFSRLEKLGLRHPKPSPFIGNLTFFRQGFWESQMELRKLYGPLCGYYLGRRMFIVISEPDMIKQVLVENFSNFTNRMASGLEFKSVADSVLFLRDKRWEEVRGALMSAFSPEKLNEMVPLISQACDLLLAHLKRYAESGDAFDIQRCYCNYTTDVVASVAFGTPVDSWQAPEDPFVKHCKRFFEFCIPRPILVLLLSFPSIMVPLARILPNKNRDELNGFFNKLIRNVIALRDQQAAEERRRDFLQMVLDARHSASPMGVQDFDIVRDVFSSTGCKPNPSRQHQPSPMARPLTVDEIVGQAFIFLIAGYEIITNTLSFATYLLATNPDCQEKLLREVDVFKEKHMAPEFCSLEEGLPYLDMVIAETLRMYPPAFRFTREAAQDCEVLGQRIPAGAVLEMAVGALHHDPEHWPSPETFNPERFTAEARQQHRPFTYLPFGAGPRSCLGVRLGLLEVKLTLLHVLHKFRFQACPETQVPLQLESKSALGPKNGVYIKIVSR
The assay can be described thus: Thromboxane A2 (T×A2) synthetase inhibition (T×B2 production, radioimmunoassay). It counts as biochemical. The following applies: human platelet microsomes, in vitro; read-out: T×A2 synthetase inhibitory activity: IC50. The procedure: Ram seminal vesicle microsomes (Biochemistry, 1971, 10, 2372) are incubated with arachidonic acid (100.0 μM) for 1.0 minute at 22° C. to produce endoperoxide (PGH2). Aliquots of PGH2 are incubated for 30 seconds at 22° C. with pig aorta microsomes (Nature, 1976, 263, 663) and the reaction terminated with five volumes of ethanol. PGI2 production is assessed by measuring its stable breakdown product 6-keto-PGF1α, using a specific radioimmunoassay.
Indomethacin pretreated human platelet microsomes (Science 1976, 193, 163) are incubated for 2 minutes at 0° C. with PGH2 (produced as in 1) and the reaction terminated with 5 volumes of ethanol. T×A2 production is assessed by measuring its stable metabolite T×B2,using a specific radioimmunoassay.
The test compound is pre-incubated with enzyme for 5 minutes, and its ability to inhibit the thromboxane A2 synthetase enzyme is measured as the reduction of T×A2 (T×B2) production.

A further assay addresses T2, thromboxane A2 receptor (Rattus norvegicus, UniProt P34978).
T2 construct: Spirally cut rat aortic strips; from tissue; host or cells: rat aorta (spirally cut strips)
T2 sequence (P34978 1-341): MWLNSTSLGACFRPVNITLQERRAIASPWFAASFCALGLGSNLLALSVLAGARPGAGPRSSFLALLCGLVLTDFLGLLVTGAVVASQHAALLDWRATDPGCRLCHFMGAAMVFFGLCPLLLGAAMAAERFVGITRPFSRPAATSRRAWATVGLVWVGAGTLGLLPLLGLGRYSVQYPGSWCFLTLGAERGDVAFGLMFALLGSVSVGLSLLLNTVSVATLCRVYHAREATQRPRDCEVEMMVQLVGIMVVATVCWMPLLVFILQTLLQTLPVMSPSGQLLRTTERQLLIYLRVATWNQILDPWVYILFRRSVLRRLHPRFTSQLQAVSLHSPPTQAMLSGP
The assay can be described thus: Thromboxane A2 receptor antagonism (U-46619 contraction of rat aortic strips). The assay is classed as cell-based. The following applies: agonist U-46619, in vitro, read-out: T×A2 antagonist activity: pA2 (converted). The procedure: Spirally cut rat aortic strips, mounted for isometric tension recording in 20 ml organ baths, are bathed in Krebs-bicarbonate solution at 37° C. Following an incubation period of 2 hours under 1 gram resting tension, the tissues are pre-treated with U-46619 (a thromboxane A2 receptor agonist) for 10 minutes, then washed and the tissues allowed to equilibrate for a further 1 hour. Cumulative doses of U-46619 over the range 1 nM-100 nM are sequentially included in the bathing fluid and increases in the tissue tension noted.
The test compounds are incubated with the tissue for 15 minutes prior to repeating the cumulative dosing of U-46619 and the ability of the compound to antagonize the thromboxane A2 receptor is determined from the dose-response curves for U-46619 in the presence of varied concentrations of the test compound.

For the next assay, the system named is PGI2 synthetase. Particulars: pre-incubation with pig aorta microsomes; result in words; cited from earlier work.

SMILES strings stand for the structures.

As to `C=C(c1cccnc1)c1cc(CCNS(=O)(=O)c2ccc(Cl)cc2)cc(CCC(=O)O)c1` [Example 83, 3-{3-[2-(4-Chlorophenylsulphonylamino)ethyl]-5-[1-(3-pyridyl)ethenyl]phenyl}propanoic acid], in assay [1], the 50% inhibitory concentration (IC50) came out at 53 nM. For the same compound, the Kb on thromboxane A2 receptor is 0.0977 nM.
Take `CCCCCC(/C=C/C=C\C/C=C\C/C=C\CCCC(=O)O)OO` (stereo not shown) [15-hydroperoxyarachidonic acid]: the “inhibition of PGI2 production by PGI2 synthetase” value in the assay with PGI2 synthetase is “completely inhibited”.
In the case of `CC(c1cccnc1)c1cc(CCNS(=O)(=O)c2ccccc2)cc(CCC(=O)O)c1` (stereo not shown) [Example 84, 3-{3-(2-Phenylsulphonylamino)ethyl-5-[1-(3-pyridyl)ethyl]phenyl}propanoic acid], in assay [1], the IC50 worked out at 44 nM. For the same compound, the Kb on thromboxane A2 receptor is 0.186 nM.
As for `O=C(O)CCc1cc(CCNS(=O)(=O)c2ccc(Br)cc2)cc(Cc2cccnc2)c1` [Example 49, 3-{3-[2-(4-Bromophenylsulphonylamino)ethyl]-5-(3-pyridylmethyl)phenyl}propanoic acid], the concentration for half-maximal inhibition (IC50) in assay [1] came to 49 nM. In addition, on thromboxane A2 receptor, the Kb was 0.363 nM.
As for `CC(c1cccnc1)c1cc(CCNS(=O)(=O)c2ccc(Cl)cc2)cc(CCC(=O)O)c1` (stereo not shown) [Example 85, 3-{3-[2-(4-Chlorophenylsulphonylamino)ethyl]-5-[1-(3-pyridyl)ethyl]phenyl}propanoic acid], the half-inhibitory concentration (IC50) in assay [1] came to 38 nM. For the same compound, the Kb at thromboxane A2 receptor is 0.0692 nM.
On to `CC(O)(c1cccnc1)c1cc(CCNS(=O)(=O)c2ccc(Cl)cc2)cc(CCC(=O)O)c1` (stereo not shown) [Example 67], for which, in assay [1], the 50% inhibitory concentration (IC50) was 61 nM. On thromboxane A2 receptor, the Kb is 0.851 nM.
Consider `O=C(O)CCc1cc(CCNS(=O)(=O)c2ccc(Cl)cc2)cc(Cc2cccnc2)c1` [Example 48, 3-{3-[2-(4-Chlorophenylsulphonylamino)ethyl]-5-(3-pyridylmethyl)phenyl}propanoic acid], for which the IC50 in assay [1] was determined as 39 nM. In addition, the Kb at thromboxane A2 receptor was 0.407 nM.
For `C=C(c1cccnc1)c1cc(CCNS(=O)(=O)c2ccccc2)cc(CCC(=O)O)c1` [Example 82, 3-{3-(2-Phenylsulphonylamino)ethyl-5-[1-(3-pyridyl)ethenyl]phenyl}propanoic acid], the IC50 in assay [1] turned out to be 50 nM. Further, on thromboxane A2 receptor, the Kb is 0.759 nM.
With `O=C(O)CCc1cc(CCNS(=O)(=O)c2ccccc2)cc(Oc2cccnc2)c1` [Example 61, 3-[3(2-Phenylsulphonylamino)ethyl-5-(3-pyridyloxy)phenyl]propanoic acid], the IC50 in assay [1] amounted to 38 nM. For the same compound, the Kb on thromboxane A2 receptor is 0.871 nM.
`O=C(O)CCc1cc(CCNS(=O)(=O)c2ccc(Cl)cc2)cc(Oc2cccnc2)c1` [Example 62, 3-{3-[2-(4-Chlorophenylsulphonylamino)ethyl]-5-(3-pyridyloxy)phenyl}propanoic acid]: in assay [1], the IC50 worked out at 37 nM. Further, the Kb on thromboxane A2 receptor was 0.398 nM.
